Results: PMC6913882 (ACS chemical biology, 2018)
Where two headings read alike, the source gives them in different places.

Key:
Format in all cases: binding
[1] = biological target: T1, DNA methyltransferase-1 (mDNMT1) (Mus musculus, UniProt P13864, N1248A); test: crystal structure at […] Å
[2] = biological target: T2, DNA methyltransferase-1 (mDNMT1) (Mus musculus, UniProt P13864); test: SPR
[3] = biological target: T1, DNA methyltransferase-1 (mDNMT1); test: SPR
[4] = biological target: T2, DNA methyltransferase-1 (mDNMT1); test: SPR; remark: listed apart in the source
[5] = biological target: DNA methyltransferase-1 (mDNMT1) (Mus musculus, UniProt P13864, R1279D); test: SPR
DNA methyltransferase-1 (mDNMT1) (Mus musculus, UniProt P13864, R1279D), sequence (P13864 731-1602 R1279D): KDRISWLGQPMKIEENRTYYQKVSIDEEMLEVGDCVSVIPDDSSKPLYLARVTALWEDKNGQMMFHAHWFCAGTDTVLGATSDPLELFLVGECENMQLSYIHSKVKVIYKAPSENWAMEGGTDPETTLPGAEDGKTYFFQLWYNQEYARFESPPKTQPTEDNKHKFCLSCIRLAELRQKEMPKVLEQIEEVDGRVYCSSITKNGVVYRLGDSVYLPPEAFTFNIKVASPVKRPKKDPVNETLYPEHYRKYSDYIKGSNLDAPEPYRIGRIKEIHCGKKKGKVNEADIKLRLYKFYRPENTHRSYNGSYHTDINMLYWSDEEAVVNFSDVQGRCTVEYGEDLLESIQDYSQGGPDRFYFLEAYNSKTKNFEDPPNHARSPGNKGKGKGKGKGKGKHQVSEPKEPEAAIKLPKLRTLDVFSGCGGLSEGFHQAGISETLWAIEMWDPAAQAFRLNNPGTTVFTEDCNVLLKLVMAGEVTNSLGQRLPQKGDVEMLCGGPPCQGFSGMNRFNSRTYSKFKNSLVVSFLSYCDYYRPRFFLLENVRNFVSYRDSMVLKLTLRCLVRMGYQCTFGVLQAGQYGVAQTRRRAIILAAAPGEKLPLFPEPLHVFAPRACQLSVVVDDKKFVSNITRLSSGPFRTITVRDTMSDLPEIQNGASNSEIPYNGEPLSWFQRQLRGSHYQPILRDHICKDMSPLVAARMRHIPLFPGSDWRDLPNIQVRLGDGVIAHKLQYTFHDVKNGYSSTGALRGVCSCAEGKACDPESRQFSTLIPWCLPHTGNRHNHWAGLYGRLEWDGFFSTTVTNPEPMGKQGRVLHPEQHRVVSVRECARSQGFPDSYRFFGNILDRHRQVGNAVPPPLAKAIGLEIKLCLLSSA

T1 sequence (P13864 731-1602 N1248A): as the sequence (P13864 731-1602 R1279D) above, with N518A, D549R counted along it
T2 sequence (P13864 731-1602): as the sequence (P13864 731-1602 R1279D) above, with D549R counted along it

Kd [2]	Kd [3]	Kd [4]	Kd [5]	SMILES	Kd [1]
~0.47 µM				Nc1ncnc2c1ncn2[C@@H]1O[C@H](CSCC[C@H](N)C(=O)O)[C@@H](O)[C@H]1O [AdoHcy]	The N1248A mutant was bound to AdoHcy (Figure S5A)
	6.61 µM	~5.75 µM	3.78 µM	C[S+](CC[C@H](N)C(=O)[O-])C[C@H]1O[C@@H](n2cnc3c(N)ncnc32)[C@H](O)[C@@H]1O (some centres unmarked) [AdoMet]	
